The source of these data is publication PMC3814616, “BRAF inhibitors suppress apoptosis through off-target inhibition of JNK signaling” (eLife, 2013).

What all share (experiment): Quantitative competitive binding assay (KINOMEscan)
One assay has as its target T1, TAOK3 (Homo sapiens, UniProt Q9H2K8).
T1 construct: purchased KINOMEscan (DiscoveRx), San Diego, CA
As to conditions: for remaining binding at 0.05 µM: read-out: Percent control (50 nM); for remaining binding at 0.2 µM: read-out: Percent control (200 nM); for remaining binding at 1 µM: read-out: Percent control (1000 nM); for remaining binding at 10 µM: read-out: Percent control (10 μM).

The target in another assay is T2, FGR (Homo sapiens, UniProt P09769).
T2 construct: purchased KINOMEscan (DiscoveRx), San Diego, CA
T2 sequence (P09769 whole entry): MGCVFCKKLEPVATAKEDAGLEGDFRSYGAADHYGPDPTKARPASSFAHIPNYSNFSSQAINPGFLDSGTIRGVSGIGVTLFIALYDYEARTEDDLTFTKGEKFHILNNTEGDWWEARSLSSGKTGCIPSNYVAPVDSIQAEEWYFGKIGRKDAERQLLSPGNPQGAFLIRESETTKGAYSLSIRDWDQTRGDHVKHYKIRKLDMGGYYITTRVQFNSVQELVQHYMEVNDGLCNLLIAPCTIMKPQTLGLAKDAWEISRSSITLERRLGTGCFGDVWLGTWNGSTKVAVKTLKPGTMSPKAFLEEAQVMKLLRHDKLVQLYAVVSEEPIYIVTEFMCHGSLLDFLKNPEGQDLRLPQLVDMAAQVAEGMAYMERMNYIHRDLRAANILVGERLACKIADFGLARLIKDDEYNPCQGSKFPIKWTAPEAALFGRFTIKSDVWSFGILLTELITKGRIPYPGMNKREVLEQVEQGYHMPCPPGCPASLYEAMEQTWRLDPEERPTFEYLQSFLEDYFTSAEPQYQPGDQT
Conditions: for IC50: estimated Kd, averaged pointwise estimates, transformed Hill equation, read-out: Calculated estimate of IC50; for remaining binding at 0.05 µM: read-out: Percent control (50 nM); for remaining binding at 0.2 µM: read-out: Percent control (200 nM); for remaining binding at 1 µM: read-out: Percent control (1000 nM); for remaining binding at 10 µM: read-out: Percent control (10 μM).

The target of another assay is T3, MST1 (STK4) (Homo sapiens, UniProt Q13043).
T3 construct: purchased KINOMEscan (DiscoveRx), San Diego, CA
T3 sequence (Q13043 1-487): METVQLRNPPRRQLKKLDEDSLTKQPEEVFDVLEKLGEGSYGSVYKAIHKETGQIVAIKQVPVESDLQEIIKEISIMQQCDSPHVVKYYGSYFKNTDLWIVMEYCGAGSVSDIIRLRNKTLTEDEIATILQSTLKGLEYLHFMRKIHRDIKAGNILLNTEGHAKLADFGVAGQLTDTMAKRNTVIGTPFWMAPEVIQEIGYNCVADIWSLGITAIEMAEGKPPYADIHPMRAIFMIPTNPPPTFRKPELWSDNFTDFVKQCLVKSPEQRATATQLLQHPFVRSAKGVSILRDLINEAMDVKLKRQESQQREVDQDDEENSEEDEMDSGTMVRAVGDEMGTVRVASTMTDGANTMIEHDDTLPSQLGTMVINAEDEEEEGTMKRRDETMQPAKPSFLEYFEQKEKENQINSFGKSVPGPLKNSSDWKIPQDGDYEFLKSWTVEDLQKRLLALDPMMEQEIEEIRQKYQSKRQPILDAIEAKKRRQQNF
Conditions: for remaining binding at 0.05 µM: read-out: Percent control (50 nM); for remaining binding at 0.2 µM: read-out: Percent control (200 nM); for remaining binding at 1 µM: read-out: Percent control (1000 nM); for remaining binding at 10 µM: read-out: Percent control (10 μM).

The next assay has as its target T4, ASK1 (MAP3K5) (Homo sapiens, UniProt Q99683).
T4 construct: purchased KINOMEscan (DiscoveRx), San Diego, CA
T4 sequence (Q99683 1-1374): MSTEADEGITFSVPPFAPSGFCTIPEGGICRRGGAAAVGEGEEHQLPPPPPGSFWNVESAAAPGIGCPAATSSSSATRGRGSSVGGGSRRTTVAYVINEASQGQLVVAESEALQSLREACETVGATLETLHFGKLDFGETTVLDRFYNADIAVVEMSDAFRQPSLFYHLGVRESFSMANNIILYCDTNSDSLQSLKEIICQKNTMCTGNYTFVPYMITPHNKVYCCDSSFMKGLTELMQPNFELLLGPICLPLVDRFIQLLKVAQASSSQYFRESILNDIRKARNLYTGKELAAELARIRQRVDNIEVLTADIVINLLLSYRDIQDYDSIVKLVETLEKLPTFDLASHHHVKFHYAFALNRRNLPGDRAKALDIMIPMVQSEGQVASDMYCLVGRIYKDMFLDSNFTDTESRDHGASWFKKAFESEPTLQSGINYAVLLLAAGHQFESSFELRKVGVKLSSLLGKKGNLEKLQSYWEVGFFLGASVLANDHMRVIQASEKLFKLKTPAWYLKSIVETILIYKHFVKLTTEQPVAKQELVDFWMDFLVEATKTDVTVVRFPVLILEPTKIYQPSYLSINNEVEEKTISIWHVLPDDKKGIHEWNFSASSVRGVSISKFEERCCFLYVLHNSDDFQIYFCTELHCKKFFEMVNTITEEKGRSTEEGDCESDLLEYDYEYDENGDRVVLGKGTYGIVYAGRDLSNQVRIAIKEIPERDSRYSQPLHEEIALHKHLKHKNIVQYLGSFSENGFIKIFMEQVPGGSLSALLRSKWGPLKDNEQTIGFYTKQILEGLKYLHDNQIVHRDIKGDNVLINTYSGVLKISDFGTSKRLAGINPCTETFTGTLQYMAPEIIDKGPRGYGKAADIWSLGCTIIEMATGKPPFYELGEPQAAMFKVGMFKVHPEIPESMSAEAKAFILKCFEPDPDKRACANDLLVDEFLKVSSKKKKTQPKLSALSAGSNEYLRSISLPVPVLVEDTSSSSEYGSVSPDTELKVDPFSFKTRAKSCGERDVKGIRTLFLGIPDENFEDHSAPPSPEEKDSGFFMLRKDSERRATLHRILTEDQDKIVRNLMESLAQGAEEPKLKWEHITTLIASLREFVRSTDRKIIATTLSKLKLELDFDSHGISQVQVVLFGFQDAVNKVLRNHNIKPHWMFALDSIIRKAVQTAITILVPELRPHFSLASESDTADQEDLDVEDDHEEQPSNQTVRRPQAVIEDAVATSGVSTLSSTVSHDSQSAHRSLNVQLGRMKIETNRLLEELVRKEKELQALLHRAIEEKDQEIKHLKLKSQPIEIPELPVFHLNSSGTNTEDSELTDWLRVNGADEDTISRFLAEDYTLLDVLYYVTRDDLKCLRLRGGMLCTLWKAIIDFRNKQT
Conditions: for IC50: estimated Kd, averaged pointwise estimates, transformed Hill equation, read-out: Calculated estimate of IC50; for remaining binding at 0.05 µM: read-out: Percent control (50 nM); for remaining binding at 0.2 µM: read-out: Percent control (200 nM); for remaining binding at 1 µM: read-out: Percent control (1000 nM); for remaining binding at 10 µM: read-out: Percent control (10 μM).

The target in the next assay is T5, MAP3K2 (Homo sapiens, UniProt Q9Y2U5).
T5 construct: purchased KINOMEscan (DiscoveRx), San Diego, CA
T5 sequence (Q9Y2U5 1-619): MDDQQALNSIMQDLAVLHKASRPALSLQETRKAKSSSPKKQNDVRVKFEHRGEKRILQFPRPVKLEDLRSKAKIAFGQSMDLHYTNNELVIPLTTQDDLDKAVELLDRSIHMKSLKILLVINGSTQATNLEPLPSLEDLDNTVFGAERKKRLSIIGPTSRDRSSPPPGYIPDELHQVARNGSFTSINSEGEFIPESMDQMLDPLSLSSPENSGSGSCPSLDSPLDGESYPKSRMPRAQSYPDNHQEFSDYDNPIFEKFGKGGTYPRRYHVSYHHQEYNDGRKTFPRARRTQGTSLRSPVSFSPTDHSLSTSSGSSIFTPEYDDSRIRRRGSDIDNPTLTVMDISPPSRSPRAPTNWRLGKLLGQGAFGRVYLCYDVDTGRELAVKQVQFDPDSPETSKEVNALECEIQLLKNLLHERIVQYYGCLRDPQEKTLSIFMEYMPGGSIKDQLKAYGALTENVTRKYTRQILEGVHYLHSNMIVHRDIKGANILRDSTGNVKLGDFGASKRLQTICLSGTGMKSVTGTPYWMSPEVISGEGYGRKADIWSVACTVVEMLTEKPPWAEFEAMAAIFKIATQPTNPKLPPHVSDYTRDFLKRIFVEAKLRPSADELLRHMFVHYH
Conditions: for remaining binding at 0.05 µM: read-out: Percent control (50 nM); for remaining binding at 0.2 µM: read-out: Percent control (200 nM); for remaining binding at 1 µM: read-out: Percent control (1000 nM); for remaining binding at 10 µM: read-out: Percent control (10 μM).

The mark [1] stands for this setting: estimated Kd, averaged pointwise estimates, transformed Hill equation, read-out: Calculated estimate of IC50.

T1 sequence (Q9H2K8 whole entry): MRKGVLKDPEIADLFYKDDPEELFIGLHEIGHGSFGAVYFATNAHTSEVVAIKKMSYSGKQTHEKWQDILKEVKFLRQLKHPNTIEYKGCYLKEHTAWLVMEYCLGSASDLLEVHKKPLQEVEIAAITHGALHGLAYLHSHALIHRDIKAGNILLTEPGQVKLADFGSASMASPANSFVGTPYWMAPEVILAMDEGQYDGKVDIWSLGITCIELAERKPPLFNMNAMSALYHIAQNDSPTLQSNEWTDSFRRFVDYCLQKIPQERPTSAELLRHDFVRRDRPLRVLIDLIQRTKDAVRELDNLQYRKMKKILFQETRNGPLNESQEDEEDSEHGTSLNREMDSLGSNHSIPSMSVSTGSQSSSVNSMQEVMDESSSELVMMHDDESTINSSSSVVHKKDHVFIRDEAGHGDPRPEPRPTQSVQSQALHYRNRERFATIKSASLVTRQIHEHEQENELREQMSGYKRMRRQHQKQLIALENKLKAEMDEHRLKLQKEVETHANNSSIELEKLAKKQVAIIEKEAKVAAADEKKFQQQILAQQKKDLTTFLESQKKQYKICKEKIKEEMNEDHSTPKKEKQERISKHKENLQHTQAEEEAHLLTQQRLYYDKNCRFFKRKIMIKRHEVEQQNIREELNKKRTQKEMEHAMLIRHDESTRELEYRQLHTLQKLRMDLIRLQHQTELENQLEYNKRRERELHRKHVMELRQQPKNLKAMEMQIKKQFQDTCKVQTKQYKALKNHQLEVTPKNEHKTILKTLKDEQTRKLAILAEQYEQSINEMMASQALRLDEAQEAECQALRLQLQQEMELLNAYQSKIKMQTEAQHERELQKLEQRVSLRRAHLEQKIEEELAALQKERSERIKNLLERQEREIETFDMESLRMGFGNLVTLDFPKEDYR

For orientation: IC50 means the point on the concentration scale where inhibition reaches its midpoint. Turning to `CCCS(=O)(=O)Nc1ccc(F)c(C(=O)c2c[nH]c3ncc(Cl)cc23)c1F` [PLX4720], the remaining binding at 0.05 µM at TAOK3 came to 100%; on FGR, 69%; on MST1 (STK4), 100%; at ASK1 (MAP3K5), 89%; on MAP3K2, 100%. Further, the remaining binding at 0.2 µM on TAOK3 was found to be 98%; on FGR, 38%; at MST1 (STK4) it was 93%; on ASK1 (MAP3K5), 98%; at MAP3K2 it was 93%. The remaining binding at 1 µM on TAOK3 is 96%; on FGR it was 11%; on MST1 (STK4), 84%; on ASK1 (MAP3K5), 97%; on MAP3K2, 87%. The remaining binding at 10 µM at TAOK3 was found to be 58%; at FGR, 2.5%; at MST1 (STK4), 55%; on ASK1 (MAP3K5), 100%; on MAP3K2 it was 41%. The IC50 on FGR was 0.153 µM; at MST1 (STK4) (setting [1]), 6.71 µM; at ASK1 (MAP3K5) it was 14.2 µM.
With `CCCS(=O)(=O)Nc1ccc(F)c(C(=O)c2c[nH]c3ncc(-c4ccc(Cl)cc4)cc23)c1F` [vemurafenib], the IC50 on TAOK3 (setting [1]) is 15.5 µM; on FGR it was 0.149 µM; at ASK1 (MAP3K5) it was 12 µM. The remaining binding at 0.05 µM was determined as 92% on TAOK3; 65% on FGR; 99% at MST1 (STK4); 90% at ASK1 (MAP3K5); 91% on MAP3K2. The remaining binding at 0.2 µM at TAOK3 was found to be 98%; on FGR, 49%; at MST1 (STK4), 83%; at ASK1 (MAP3K5) it was 94%; at MAP3K2 it was 91%. For the same compound, the remaining binding at 1 µM is 92% on TAOK3; 13% at FGR; 51% at MST1 (STK4); 97% at ASK1 (MAP3K5); 89% on MAP3K2. For the same compound, the remaining binding at 10 µM on TAOK3 worked out at 80%; on FGR, 1.6%; on MST1 (STK4), 12%; on ASK1 (MAP3K5), 100%; on MAP3K2 it was 83%.
